Among the data in PubChem BioAssay (NCI) are GI50 and TGI values, retold here.

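Results reflect a 48-hour exposure of cells in 96-well plates to compound at five concentrations. Abbreviation: GI50, concentration required for 50% inhibition of growth. TGI denotes the concentration required for complete inhibition of growth.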

What all share (assay): NCI anticancer screen, dose series, 48 h
Assay [1] deals with TK-10 renal.
Assay [2] relates to IGROV1 ovarian.
In assay [3] the test system is OVCAR-4 ovarian.
The subject of assay [4] is SF-268 CNS.
For assay [5], the system named is LOX IMVI melanoma.
Assay [6] concerns HOP-92 NSCLC.
Assay [7] relates to PC-3 prostate.
The subject of assay [8] is MCF7 breast.
The test system of assay [9] is DU-145 prostate.

As for `N.N.N.N.O=NN1CCCCCC1(P(=O)([O-])[O-])P(=O)([O-])[O-].[Pt+4].[Pt+4]`, the GI50 in [1], in [2], in [3], in assay [4], in [5] and in assay [6] was more than 100 µM each time. Also, the TGI in assay [1], in assay [2], in assay [3], in assay [4], in assay [5] and in assay [6] was more than 100 µM each time.
`COc1ccccc1-c1cc(/C=C2\C(=O)Nc3ncc(Br)cc32)cc(Br)c1O`: the GI50 in assay [1] is 9.95 µM; in assay [7], 9.18 µM; in assay [2] it was 10.4 µM; in assay [3] it was 8.96 µM; in assay [4], 11.1 µM; in [5], 10.5 µM. Besides, the GI50 in assay [6] was 1.21 µM; in assay [8] it was 8.05 µM; in [9], 17.6 µM. Also, the TGI in [1], in assay [7], in assay [2], in assay [3], in assay [4] and in assay [5] was more than 25 µM in each case. The TGI in [6], in [8] and in assay [9] was more than 25 µM each time.
`Cc1ccc(S(=O)(=O)Oc2ccc([N+](=O)[O-])cc2[N+](=O)[O-])cc1`: the GI50 in [1] is 4.54 µM; in assay [7] it was 5.15 µM; in [2], 2.46 µM; in assay [3] it was 7.51 µM; in assay [4], 3.64 µM; in [5] it was 3.23 µM. Moreover, the GI50 is 4.34 µM in [6], 4.13 µM in assay [8] and 11.4 µM in [9]. In addition, the TGI in assay [1] is 17.4 µM; in assay [7] it was 26.5 µM; in assay [2], 8.37 µM; in assay [3], 20.4 µM; in [4], 15 µM; in assay [5], 15 µM. The values for the TGI in assay [6], in [8] and in assay [9] were 21.7 µM, 23.2 µM and 23.5 µM, respectively.
As for `O=Nc1ccc(O)c2ccccc12`, the GI50 was 2.24 µM in [1]; 1.88 µM in assay [7]; 1.51 µM in assay [2]; 1.17 µM in assay [3]; 2.29 µM in [4]; 0.668 µM in [5]. Further, the GI50 in assay [6] is 3.31 µM; in assay [8] it was 1.81 µM; in assay [9] it was 1.77 µM. Further, the TGI turned out to be 4.66 µM in assay [1]; 6.99 µM in assay [7]; 3.29 µM in assay [2]; 2.44 µM in assay [3]; 5.87 µM in [4]; 2.28 µM in [5]. Also, the values for the TGI in assay [6], in assay [8] and in assay [9] were 9.01 µM, 4.31 µM and 3.22 µM, respectively.
As to `COc1cc2c3c(c4ccc(OC)c(OC)c4c2cc1OC)CN1CCC[C@@H]1C3`, the TGI in [1] was 3.88 µM; in assay [7] it was 6.58 µM; in assay [2] it was 0.935 µM; in assay [3], 1.42 µM; in assay [4], 2.38 µM; in [5], 0.384 µM. For the same molecule, the TGI in [6] is 0.616 µM; in [8], more than 20.3 µM; in assay [9], 2.9 µM.
Regarding `O=C(NCCO)c1cc2c(cn1)[nH]c1ccccc12`, the TGI in assay [1], in assay [2], in [3], in assay [4], in [5] and in assay [6] was more than 100 µM in each case.
For the molecule `Cc1cccc(-c2nn3c(c2-c2ccnc4ccc(C(N)=O)cc24)CCC3)n1`, the GI50 is more than 100 µM in assay [1]; more than 100 µM in assay [7]; more than 92.3 µM in [2]; more than 100 µM in assay [3]; more than 100 µM in assay [4]; more than 100 µM in assay [5]. Further, the GI50 in assay [6], in assay [8] and in assay [9] was more than 100 µM throughout. Moreover, the TGI in [1], in [7], in assay [2], in assay [3], in [4] and in [5] was more than 100 µM throughout. For the same molecule, the TGI in assay [6], in [8] and in [9] was more than 100 µM throughout.
On to `c1ccc(N=c2snc3scc(-c4ccccc4)n23)cc1`, for which the TGI in assay [1] is more than 100 µM; in assay [2], more than 100 µM; in assay [3], more than 100 µM; in [4] it was more than 100 µM; in assay [5], more than 100 µM; in [6], 76.3 µM.
On to `Cc1ccc(-n2c3nc(=O)n(C)c(=O)c-3nc3ccccc32)cc1`, for which the TGI in assay [1] was more than 100 µM; in assay [2] it was 92.1 µM; in assay [3], 28.5 µM; in assay [4], more than 100 µM; in assay [5], 43.7 µM.
In the case of `O=C1Nc2cc(Cl)ccc2N=CC1NC(=O)C(c1ccccc1)c1ccccc1Cl` (stereo unspecified), the TGI in [1], in [2], in assay [3], in assay [4], in assay [5] and in assay [6] was more than 100 µM throughout.
Turning to `CCSC(SCC)c1cc2c(cc1Br)OCO2`, the TGI in assay [1] is more than 100 µM; in [2], more than 100 µM; in assay [3], more than 100 µM; in assay [4], more than 100 µM; in assay [5], 38 µM; in [6] it was 55.3 µM.
As for `COc1ccccc1/C=C/C(=O)c1c(O)cc2occc2c1OC`, the GI50 in assay [1] was 21.9 µM; in [7] it was more than 100 µM; in assay [2] it was 26 µM; in assay [3], more than 100 µM; in assay [4] it was 22.2 µM; in assay [5], 30.1 µM. Further, the GI50 in assay [6] is 2.98 µM; in [8], 9.56 µM; in assay [9], 23.5 µM. In addition, the TGI is 62.7 µM in [1]; more than 100 µM in assay [7]; more than 100 µM in [2]; more than 100 µM in assay [3]; more than 100 µM in [4]; more than 100 µM in assay [5]. Also, the results for the TGI in assay [6], in assay [8] and in assay [9] were 26.6 µM, more than 100 µM and more than 100 µM, respectively.
`O=C(NCCc1ccccc1)C(c1ccccc1)(c1ccccc1)c1ccccc1`: the GI50 is 1.86 µM in assay [1]; 31 µM in assay [7]; 28.8 µM in assay [2]; more than 100 µM in [3]; 30 µM in [4]; more than 100 µM in assay [6]. In addition, the results for the GI50 in [8] and in assay [9] were 26 µM and 3.38 µM, respectively. The TGI in [1] is 9.42 µM; in [7], more than 100 µM; in assay [2], 70 µM; in assay [3], more than 100 µM; in assay [4], more than 100 µM; in assay [6], more than 100 µM. The TGI in [8] is more than 100 µM; in assay [9] it was 44.2 µM.
Take `COC(=O)[C@@]1(Cc2ccccc2)[C@H]2c3cc(C(=O)N4CCCC4)n(Cc4ccc(OC)c(OC)c4)c3C[C@H]2CN1C(=O)c1ccccc1`: the GI50 in assay [1] is 16 µM; in assay [7], 22.6 µM; in assay [3], 16.4 µM; in assay [4], 13.3 µM; in assay [5], 9.12 µM; in assay [6], 13.3 µM. For the same molecule, the figures for the GI50 in assay [8] and in assay [9] were 13.8 µM and 15 µM, respectively. Moreover, the TGI in [1] is 43.9 µM; in [7], more than 50 µM; in assay [3], more than 50 µM; in assay [4], more than 50 µM; in assay [5], 16.8 µM; in assay [6], 28 µM. The TGI in [8] is 44.8 µM; in [9], more than 50 µM.
As for `O=C1OC(c2ccccc2)=N/C1=C\c1ccc2ccccc2c1`, the TGI in assay [1], in assay [2], in assay [3], in assay [4], in [5] and in [6] was more than 100 µM throughout.
`CSc1nc(NC2OCC(OC(C)=O)C(OC(C)=O)C2OC(C)=O)c(N=C(C)C(C)=O)c(=O)n1C` (stereo unspecified): the TGI in [1], in assay [2], in [3], in assay [5] and in assay [6] was more than 100 µM throughout.
On to `COC(=O)C(Cc1cnc[nH]1)NC(=O)CNC(=O)CCCn1c(=O)c2c3ccccc3n(C)c2n2nnc(-c3ccccc3)c12` (stereo unspecified), for which the GI50 in assay [1] is more than 100 µM; in assay [7], 30.1 µM; in assay [2] it was 72.5 µM; in assay [3] it was more than 100 µM; in [4] it was more than 100 µM; in [5] it was more than 100 µM. For the same molecule, the GI50 in [8] and in [9] was more than 100 µM in each case. In addition, the TGI in assay [1], in [7], in assay [2], in assay [3], in assay [4] and in assay [5] was more than 100 µM each time. Further, the TGI in [8] and in assay [9] was more than 100 µM throughout.
For the molecule `COc1cc2c(c(OC)c1O)-c1ccc(OC)c(=O)cc1[C@@H](NC(=O)C(F)(F)F)CC2`, the TGI in assay [1] is more than 100 µM; in assay [7], 0.588 µM; in [2], 0.695 µM; in [3], more than 100 µM; in [4], more than 100 µM; in assay [5], more than 100 µM. The TGI in assay [6], in [8] and in assay [9] was more than 100 µM each time.
With `CCN(CC)CC.CCOc1ccc(NC(=O)N=C=[N-])cc1.[CH-]1CCCCC1.[CH-]1CCCCC1.[CH-]1CCCCC1.[Cl-].[Sn+4]`, the GI50 in assay [1] is 0.0458 µM; in [7], 0.0596 µM; in [2], 0.0342 µM; in assay [3], 0.0446 µM; in [4] it was 0.0332 µM; in assay [5], 0.0157 µM. Also, the values for the GI50 in assay [6] and in [9] were 0.0264 µM and 0.0617 µM, respectively. Further, the TGI in assay [1] is 0.116 µM; in [7], 0.21 µM; in [2], 0.115 µM; in assay [3], 0.139 µM; in assay [4], 0.0954 µM; in assay [5], 0.0483 µM. Besides, the results for the TGI in assay [6] and in assay [9] were 0.111 µM and 0.19 µM, respectively.
In the case of `O=C(CSc1nc2ccccc2nc1-c1ccccc1)Nc1ccc(Cl)cc1`, the GI50 in [1] is 35.9 µM; in assay [7], 30.6 µM; in assay [2], 46.4 µM; in assay [3], 13.6 µM; in assay [4], 15.5 µM; in [5], 38.3 µM. Further, the GI50 in [6] was 15.4 µM; in [8], 44.3 µM; in assay [9], 55.4 µM. Also, the TGI was more than 100 µM in [1]; more than 100 µM in assay [7]; more than 100 µM in assay [2]; more than 100 µM in assay [3]; 51.3 µM in [4]; more than 100 µM in assay [5]. Also, the figures for the TGI in assay [6], in assay [8] and in assay [9] were 63.5 µM, more than 100 µM and more than 100 µM, respectively.
With `O=C1/C(=C\c2ccc(F)cc2)CN(C(=O)c2ccc([N+](=O)[O-])cc2)C/C1=C\c1ccc(F)cc1`, the GI50 was 5.05 µM in assay [1]; 2.14 µM in [7]; 2.67 µM in assay [2]; 3.61 µM in assay [3]; 3.41 µM in [4]; 0.373 µM in assay [5]. The GI50 in [6] is 11.4 µM; in assay [8] it was 0.389 µM; in assay [9] it was 4.31 µM. Further, the TGI in [1] is 82.7 µM; in assay [7], 14.5 µM; in assay [2], 11 µM; in assay [3], more than 100 µM; in assay [4], more than 100 µM; in assay [5] it was 1.47 µM. For the same molecule, the TGI in assay [6] is more than 100 µM; in assay [8], 4.19 µM; in [9], more than 51.8 µM.
`NCCCCCCCCn1c2c(c3ccccc3c1=O)C(=O)c1ccccc1-2`: the GI50 in [1] is 1.93 µM; in assay [7] it was 5.05 µM; in assay [3], 4.34 µM; in assay [4] it was 6.44 µM; in assay [5], 3.64 µM; in [6], 2.4 µM. Also, the results for the GI50 in assay [8] and in [9] were 7.45 µM and 3.4 µM, respectively. The TGI in assay [1] was 3.88 µM; in assay [7], 23.3 µM; in assay [3], 27.4 µM; in assay [4], more than 100 µM; in assay [5], more than 100 µM; in assay [6] it was 8.47 µM. Also, the TGI in assay [8] amounted to 46.2 µM; in [9] it was 14 µM.
